The values that follow come from US20260217677A1, “ORGANIC COMPOUNDS AS NLRP3 INHIBITORS” (KODIAK SCIENCES, INC., priority 2023, published 2026).

The structures appear in SMILES notation.

One assay concerns IL-1β release in U937 cells after NLRP3 activation. The assay can be described thus: IL-1β release inhibition in U937 cells (MSD V-Plex). The settings on record: Homo sapiens, U-937, read-out: IL-1β IC50, Table 3; PMA-differentiated U937 cells, 1 μg/mL LPS 3 h, compound 30 min, 10 mM nigericin 1 h.
Experimental: Differentiating media was prepared by adding 20 nM phorbol 12-myristate 13-acetate (PMA) (AdipoGen AG-CN2-0010-M005) to growth medium. A cell suspension was prepared with differentiating media at 500K cells/mL. […] Plates were placed in an incubator for 90 hours. […] Differentiating media was removed and priming media was added to each well. The plates were placed in the incubator for three (3) hours. 20 mM compound DMSO stock solutions were prepared and were further diluted to 0.4 mM; This solution was serially diluted 6 times in a 1:5 ratio. A solvent control was included.
After three (3) hours of priming, all the media was removed. Next, assay media with compounds was added in duplicate columns. The plate was placed in an incubator for 30 min. Media with a final concentration of 10 mM nigericin was then added for one (1) hour. The supernatant was collected and frozen immediately at −80° C. The plate was transferred to −20° C. the next day and for later determination of cytokine IL-1ß levels.
The release of IL-1ß into the cell media was determined with the MSD® Multi-Spot Assay System (V-Plex, IL-1ß kit, K151KPD). Following the manufacturer's protocol (Alternate Protocol 3, Dilute-In-Plate), the level of IL-1ß in the above collected supernatant plate was measured using electro-chemiluminescent signals. Using MSD DISCOVERY WORKBENCH® analysis software, the signals were converted to the concentration of IL-1ß in each well. The IC50 values of the compounds were calculated using fitted non-linear regression curve in Graph Pad Prism software. The detection range of IL-1ß using MSD kit was approximately 0.15 to 600 μg/mL (based on various lots of standards purchased from MSD).
As to `Cc1cc(N[C@@H]2CCCN(CC(=O)N3CC4(CC(O)C4)C3)C2)nnc1-c1ccc(C(F)(F)F)cc1O` [Compound 16, (R)-2-(3-((6-(2-Hydroxy-4-(trifluoromethyl)phenyl)-5-methylpyridazin-3-yl)amino)piperidin-1-yl)-1-(6-hydroxy-2-azaspiro[3.3]heptan-2-yl)ethan-1-one], the IC50 fell in the range of 5 to 50 nM. Same read-out and setting: the result for `Cc1cc(N[C@@H]2CCCN(C3CCN(C4CC(O)C4)CC3)C2)nnc1-c1ccc(C(F)(F)F)cc1O` (single isomer, unassigned) [Example 38A] reads 5 to 50 nM; that for `O=C(CN1CCC[C@@H](Nc2nnc(-c3ccc(C(F)(F)F)cc3O)c3ccccc23)C1)N1CCC(O)CC1` [Example 33, (R)-2-(3-((4-(2-Hydroxy-4-(trifluoromethyl)phenyl)phthalazin-1-yl)amino)piperidin-1-yl)-1-(4-hydroxypiperidin-1-yl)ethan-1-one], less than 5 nM; that for `Cc1cc(N[C@@H]2CCCN(C(=O)C3CCCC(O)C3)C2)nnc1-c1ccc(C(F)(F)F)cc1O` (single isomer, unassigned) [Example 70 Fraction A], 5 to 50 nM. For the compound `O=C(CN1CCC[C@@H](Nc2nnc(-c3ccc(C(F)(F)F)cc3O)c3c2CNC3)C1)N1CCC(O)CC1` [Example 57, (R)-2-(3-((4-(2-Hydroxy-4-(trifluoromethyl)phenyl)-6,7-dihydro-5H-pyrrolo[3,4-d]pyridazin-1-yl)amino)piperidin-1-yl)-1-(4-hydroxypiperidin-1-yl)ethan-1-one], the IC50 was in the range of 50 to 500 nM.

The same assay, now with this note: Homo sapiens, U-937, read-out: IL-1β IC50, Table 4; PMA-differentiated U937 cells, 1 μg/mL LPS 3 h, compound 30 min, 10 mM nigericin 1 h.
In the case of `Oc1cc(F)ccc1-c1nnc(N[C@@H]2CCCN(C3CNC3)C2)c2c1CCC2` [Example 81, (R)-2-(4-((1-(Azetidin-3-yl)piperidin-3-yl)amino)-6,7-dihydro-5H-cyclopenta[d]pyridazin-1-yl)-5-fluorophenol], the 50% inhibitory concentration (IC50) is 50 to 500 nM.

In the case of `Cc1cc(N[C@@H]2CCCN(C3CCN(C(=O)N4CCNCC4)CC3)C2)nnc1-c1ccc(C(F)(F)F)cc1O` [Example 86, (R)-(3-((6-(2-hydroxy-4-(trifluoromethyl)phenyl)-5-methylpyridazin-3-yl)amino)-[1,4′-bipiperidin]-1′-yl) (piperazin-1-yl)methanone], the half-inhibitory concentration (IC50) fell in the range of 5 to 50 nM. On the same count and under the same terms, the result for `Cc1cc(N[C@@H]2CCCN(C(=O)CN)C2)nnc1-c1ccc(C(F)(F)F)cc1O` [Example 92, (R)-2-Amino-1-(3-((6-(2-hydroxy-4-(trifluoromethyl)phenyl)-5-methylpyridazin-3-yl)amino)piperidin-1-yl)ethan-1-one] reads 5 to 50 nM; that for `Cc1cc(C(F)(F)F)cc(O)c1-c1ccc(N[C@@H]2CCCN(C3CNC3)C2)nn1` [Example 88, (R)-2-(6-((1-(Azetidin-3-yl)piperidin-3-yl)amino)pyridazin-3-yl)-3-methyl-5-(trifluoromethyl)phenol], 5 to 50 nM. Still for that read-out and setting: the result for `Cc1cc(N[C@@H]2CCCN(CC(=O)N3CCC4(CC3)CC(N)C4)C2)nnc1-c1ccc(C(F)(F)F)cc1O` [Example 82] reads 5 to 50 nM. The same measure, in the same setting: the result for `Cc1cc(N[C@@H]2CCCN(CC(=O)N3CCNCC3)C2)nnc1-c1ccc2sccc2c1O` [Example 113, (R)-2-(3-((6-(4-hydroxybenzo[b]thiophen-5-yl)-5-methylpyridazin-3-yl)amino)piperidin-1-yl)-1-(piperazin-1-yl)ethan-1-one] reads less than 5 nM.

The IC50 is the concentration that inhibits the measured activity by half.
